# Measurements reported in publication PMC8728736, “A Reactivity-Based ^18F-Labeled Probe for PET Imaging of Oxidative Stress in Chemotherapy-Induced Cardiotoxicity” (Molecular Pharmaceutics, 2021).
# Columns and labels:
# [1] = Vial stability by radio-HPLC; assay type: physicochemical; details: room temperature, 4 h
# Description: ^18F-FPBT (1–4 MBq) in 100% ethanol or 5% ethanol in PBS containing sodium ascorbate (0.01 mg/mL) was kept at room temperature for 4 h and then analyzed by radio-HPLC.
# [2] = Serum stability at 37 °C by radio-HPLC; assay type: in vitro ADME, rat; details: rat serum, ice-cold acetonitrile precipitation
# Description: ^18F-FPBT (∼3.0 MBq) in 5% ethanol in PBS (200 μL) containing sodium ascorbate (0.01 mg/mL) was incubated with rat serum (200 μL) at 37 °C for 1 min or 1 h. Subsequently, plasma proteins were precipitated from the supernatant with ice-cold acetonitrile (1.5 mL), and samples were centrifuged (3 min, 13 000 rpm). The residual activity in the pellet was <3%. The supernatant (∼2.0 MBq, 1.0 mL) was analyzed by radio-HPLC. HPLC method: ZORBAX column (300SB-C18, semipreparative 9.4 mm × 250 mm, 5 μm) using acetonitrile and water as the mobile phase, at a flow rate of 3.0 mL/min. The following gradient was used: from 50% to 90% acetonitrile in 15 min; kept at 90% acetonitrile for 10 min; from 90 to 50% acetonitrile in 5 min.
# ^18F-FBPT-Ox (2–4 MBq, 50 μL in 10% EtOH/PBS) was added to serum (500 μL) and incubated at 37 °C for 5, 15, and 30 min, respectively. Plasma proteins were precipitated with a 5-sulfosalicylic acid water solution (10% w/v, 1 mL) and centrifuged (3 min, 13 000 rpm). The supernatant was removed and diluted with 500 μL of DI H2O and analyzed via radio-HPLC. A control experiment was performed where ^18F-FBPT-Ox (2 MBq, 50 μL in 10% EtOH/PBS) was added to 500 μL of PBS, incubated at 37 °C for 30 min. A 5-sulfosalicylic acid water solution (10% w/v, 1 mL) was added, thoroughly mixed, then diluted with 500 μL of DI H2O, and analyzed via radio-HPLC. […]
# [3] = Reactivity of 18F-FPBT to reactive oxygen species: nitric oxide; details: diethylamine NONOate 100 μM, 30 min
# Description: (§1) ^18F-FPBT (0.5–2.0 MBq) was reacted with potassium superoxide (source of superoxide, 1 mg), hydrogen peroxide (100 μM), Fenton-reaction-generated hydroxyl radicals (100 μM), iron(II) sulfate heptahydrate (100 μM), tert-butyl hydroperoxide (100 μM), tert-butoxy radical (100 μM), and 3-morpholinosydnomine (source of peroxynitrite (100 μM)) for 5 min or diethylamine NONOate (source of nitric oxide, 100 μM) for 30 min at room temperature, after which it was subjected to radio-HPLC analysis and % oxidation was calculated.
# [4] = Reactivity of 18F-FPBT to other biologically relevant ROS; details: ROS other than superoxide
# Description: as §1
# [5] = PET/CT imaging in rat model of doxorubicin-induced cardiotoxicity; assay type: in vivo, Wistar rats; details: PET, 30 min scan, doxorubicin n = 6, saline n = 4
# Description: (§2) Male Wistar rats (280–300 g) were used in all experiments. Subcutaneous 7 day osmotic pumps (Alzet), containing either doxorubicin (Cambridge Bioscience, 30 mg/kg cumulative dose) or vehicle (sterile 0.9% NaCl), were inserted into rats under 2% isoflurane in 100% oxygen.
# Wistar rats that had received either doxorubicin treatment (male, 267 ± 19 g, n = 6) or saline (male, 303 ± 9 g, n = 4) via osmotic pumps for 7 days were injected with ^18F-FPBT (2.6 ± 1.5 MBq) via the tail vein on the PET/CT scanner bed. The time of injection coincided with the beginning of PET acquisition in order to obtain dynamic tracer uptake information. PET scans with the chest area in the field of vision were acquired for 30 min, followed by a CT scan, after which the animals were sacrificed and organs harvested, weighed, and gamma-counted as for the biodistribution protocol. The hearts were frozen in liquid nitrogen for gamma counting and oxidative stress biomarker assays. The PET data was reconstructed into three frames: 0–3 min, 3–10 min, and 10–30 min. For the time–activity curve, the PET data was reconstructed into 1 min per frame in the first 5 min and then 5 min per frame between 5 and 30 min. […] Radioactivity uptake in the heart was calculated as a standard uptake value ratio (SUVR) between left ventricle and blood. […]
# [6] = Ex vivo biodistribution in doxorubicin-treated and control rats after PET; parameters: species or system Wistar rats; details: for Ex vivo biodistribution, Blood / Ex vivo biodistribution, Bone / Ex vivo biodistribution, Heart / Ex vivo biodistribution, Kidney / Ex vivo biodistribution, Large Intestine / Ex vivo biodistribution, Liver / Ex vivo biodistribution, Lung / Ex vivo biodistribution, Muscle / Ex vivo biodistribution, Small Intestine / Ex vivo biodistribution, Spleen / Ex vivo biodistribution, Urine: 40 min post-injection
# Description: as §2
# Wistar rats that had received either doxorubicin treatment (male, 267 ± 19 g, n = 6) or saline (male, 303 ± 9 g, n = 4) via osmotic pumps for 7 days were injected with ^18F-FPBT (2.6 ± 1.5 MBq) via the tail vein on the PET/CT scanner bed. The time of injection coincided with the beginning of PET acquisition in order to obtain dynamic tracer uptake information. PET scans with the chest area in the field of vision were acquired for 30 min, followed by a CT scan, after which the animals were sacrificed and organs harvested, weighed, and gamma-counted as for the biodistribution protocol. The hearts were frozen in liquid nitrogen for gamma counting and oxidative stress biomarker assays. The PET data was reconstructed into three frames: 0–3 min, 3–10 min, and 10–30 min. For the time–activity curve, the PET data was reconstructed into 1 min per frame in the first 5 min and then 5 min per frame between 5 and 30 min. Using VivoQuant software (v3.0, inviCRO, LLC, Boston, USA), regions of interest (ROIs) were drawn in the left ventricle and blood inside the myocardium. Radioactivity uptake in the heart was calculated as a standard uptake value ratio (SUVR) between left ventricle and blood. Data are reported as mean ± SD. Statistical analysis was performed using one-way ANOVA with Tukey’s multiple comparisons test.
smiles,measurement,setting,value
"[18F]CCCN1c2ccccc2SC1c1ccccc1 (stereo not drawn) [^18F-FPBT, 3-(3-[^18F]Fluoropropyl)-2-phenyl-2,3-dihydrobenzo[d]thiazole]",Vial stability,[1]; 5% ethanol in PBS with ascorbic acid (0.01 mg/mL),stable
same,Vial stability,[1]; pure ethanol,stable
same,Residual activity in the pellet after protein precipitation,[2],< 3%
same,Reactivity to nitric oxide,[3],some reactivity
same,Reactivity to other biologically relevant ROS,[4],little or no reactivity
same,SUVR LV/blood (heart uptake) of doxorubicin-treated rats compared to vehicle control group,[5],statistically significantly (p < 0.05) higher
same,SUVR LV/blood (heart uptake) of doxorubicin-treated rats compared to vehicle control group,[5]; listed as 18F-FBPT,significantly higher (P < 0.05) uptake
same,"Post-mortem heart uptake in doxorubicin-treated animals, in words",[6]; 30 min post IV injection,did not show an increased uptake
same,"Ex vivo biodistribution, Blood","[6]; Doxorubicin group, n = 6",0.08 ± 0.06 % ID/g
same,"Ex vivo biodistribution, Bone","[6]; Doxorubicin group, n = 6",0.30 ±0.13 % ID/g
same,"Ex vivo biodistribution, Heart","[6]; Doxorubicin group, n = 6",0.43 ± 0.08 % ID/g
same,"Ex vivo biodistribution, Kidney","[6]; Doxorubicin group, n = 6",0.41 ± 0.14 % ID/g
same,"Ex vivo biodistribution, Large Intestine","[6]; Doxorubicin group, n = 6",1.42 ±2.07 % ID/g
same,"Ex vivo biodistribution, Liver","[6]; Doxorubicin group, n = 6",0.73 ± 0.24 % ID/g
same,"Ex vivo biodistribution, Lung","[6]; Doxorubicin group, n = 6",0.31 ± 0.12 % ID/g
same,"Ex vivo biodistribution, Muscle","[6]; Doxorubicin group, n = 6",0.10 ± 0.04 % ID/g
same,"Ex vivo biodistribution, Small Intestine","[6]; Doxorubicin group, n = 6",2.23 ± 1.43 % ID/g
same,"Ex vivo biodistribution, Spleen","[6]; Doxorubicin group, n = 6",0.15 ± 0.07 % ID/g
same,"Ex vivo biodistribution, Urine","[6]; Doxorubicin group, n = 6",12.5 ± 5.33 % ID/g
same,"Ex vivo biodistribution, Blood","[6]; Saline group, n = 4",0.07 ± 0.02 % ID/g
same,"Ex vivo biodistribution, Bone","[6]; Saline group, n = 4",0.25 ± 0.22 % ID/g
same,"Ex vivo biodistribution, Heart","[6]; Saline group, n = 4",0.42 ± 0.17 % ID/g
same,"Ex vivo biodistribution, Kidney","[6]; Saline group, n = 4",0.42 ± 0.19 % ID/g
same,"Ex vivo biodistribution, Large Intestine","[6]; Saline group, n = 4",0.38 ± 0.20 % ID/g
same,"Ex vivo biodistribution, Liver","[6]; Saline group, n = 4",0.65 ± 0.13 % ID/g
same,"Ex vivo biodistribution, Lung","[6]; Saline group, n = 4",0.29 ± 0.05 % ID/g
same,"Ex vivo biodistribution, Muscle","[6]; Saline group, n = 4",0.08 ± 0.02 % ID/g
same,"Ex vivo biodistribution, Small Intestine","[6]; Saline group, n = 4",3.33 ± 3.38 % ID/g
same,"Ex vivo biodistribution, Spleen","[6]; Saline group, n = 4",0.11 ± 0.02 % ID/g
same,"Ex vivo biodistribution, Urine","[6]; Saline group, n = 4",5.25 ± 3.05 % ID/g
